Measured values taken from patent US20230000870A1, “METHODS OF TREATING CANCER IN BIOMARKER-IDENTIFIED PATIENTS WITH INHIBITORS OF CYCLIN-DEPENDENT KINASE 7 (CDK7)” (Syros Pharmaceuticals, Inc., priority 2019, published 2023).

Legend:
CDK2/Cyclin E1 complex = CDK2/Cyclin E1 complex (Homo sapiens, UniProt P24941); assay: CDK2 kinase inhibition assay (Caliper/LabChip EZ Reader); format: biochemical; details: CDK2/Cyclin E1 0.5 nM, ATP 2 mM, 35 min at 27° C.
Experimental: (§1) Compounds of the invention were assayed for inhibition of CDK7, CDK9, CDK12, and CDK2 activity at Biortus Biosciences (Jiangyin, Jiangsu Province, P.R. of China) using kinase assays for each CDK developed with a Caliper/LabChip EZ Reader (Perkin Elmer, Waltham, Mass.).
(§2) Furthermore, the CDK9 inhibition assay used CDK9/Cyclin T1 complex (8 nM) and “5-FAM-CDK9tide” peptide substrate (2 μM, synthesized fluorophore-labeled peptide with the following sequence: 5-FAM-GSRTPMY-NH2 where 5-FAM is defined above and NH2 signifies a C-terminal amide) with 10 mM MgCl2 in the buffer composition listed above. The CDK12 inhibition assay used CDK12 (aa686-1082)/Cyclin K complex (50 nM) and “5-FAM-CDK9tide” (2 μM) as defined above, with 2 mM MgCl2 in the buffer composition above. Additionally, the CDK2 inhibition assay used CDK2/Cyclin E1 complex (0.5 nM) and “5-FAM-CDK7tide” (2 μM) as defined above, with 2 mM MgCl2 in the buffer composition listed above.
(§3) The incubation period at 27° C. for each CDK inhibition assay was chosen such that the fraction of phosphorylated peptide product produced in each assay, relative to the total peptide concentration, was approximately 20% (±5%) for the uninhibited kinase (35 min. for CDK7, 35 min. for CDK2, 3 hr. for CDK12, 15 min. for CDK9).

[1] = biological target: CDK7/Cyclin H/MAT1 complex (Homo sapiens, UniProt P50613); assay: CDK7 kinase inhibition assay (Caliper/LabChip EZ Reader); format: biochemical; details: CDK7/Cyclin H/MAT1 6 nM, ATP 2 mM, 35 min at 27° C.
Experimental: as §1, §2, §3

CDK9/Cyclin T1 complex = CDK9/Cyclin T1 complex (Homo sapiens, UniProt P50750); assay: CDK9 kinase inhibition assay (Caliper/LabChip EZ Reader); format: biochemical; details: CDK9/Cyclin T1 8 nM, ATP 2 mM, 15 min at 27° C.
Experimental: as §1, §2, §3

[2] = biological target: T1, CDK12 (aa686-1082)/Cyclin K complex (Homo sapiens, UniProt Q9NYV4); assay: CDK12 kinase inhibition assay (Caliper/LabChip EZ Reader); format: biochemical; details: CDK12 (aa686-1082)/Cyclin K 50 nM, ATP 2 mM, 3 hr at 27° C.
T1 construct: CDK12 (aa686-1082)/Cyclin K complex
Experimental: as §1, §2, §3

A673 cells = assay: Inhibition of proliferation of A673 cells (CyQUANT, 72 hour); format: cell-based, human; details: read-out: Inhibition of Proliferation of A673 Cells (calculated IC50)
Experimental: A673 Cells: A673 cells are a cell line derived from human muscle Ewing's sarcoma. Representative compounds of the invention were tested at different concentrations (from 4 μM to […]; 0.5 log serial dilutions) for their ability to inhibit the proliferation of A673 cells. Known CDK inhibitors dinaciclib or N-((1S,3R)-3-((5-chloro-4-(1H-indol-3-yl)pyrimidin-2-yl)amino)cyclohexyl)-5-((E)-4-(dimethylamino)but-2-enamido)picolinamide and triptolide were used as positive controls. Cells were grown in Dulbecco's Modified Eagle's Medium, +10% FBS+1 mM Sodium Pyruvate. The cells were cultured at 37° C. in a humidified chamber in the presence of 5% CO2. Proliferation assays were conducted over a 72 hour time period. CyQUANT® (Life Technologies, Chicago, Ill. USA) was used to assess the anti-proliferative effects of the compounds following manufacturer's directions and utilizing the reagents supplied with the CyQUANT® kit.

Sequence of CDK7/Cyclin H/MAT1 complex (P50613 whole entry): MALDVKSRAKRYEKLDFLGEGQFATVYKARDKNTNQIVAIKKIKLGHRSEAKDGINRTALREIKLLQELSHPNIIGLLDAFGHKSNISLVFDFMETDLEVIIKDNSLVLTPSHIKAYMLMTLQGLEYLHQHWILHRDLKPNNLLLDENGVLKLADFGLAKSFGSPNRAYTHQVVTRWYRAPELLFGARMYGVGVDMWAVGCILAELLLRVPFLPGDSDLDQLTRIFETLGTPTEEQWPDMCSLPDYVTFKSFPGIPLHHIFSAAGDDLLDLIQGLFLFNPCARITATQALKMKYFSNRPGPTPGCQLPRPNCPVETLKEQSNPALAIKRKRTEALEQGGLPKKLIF
Sequence of CDK7/Cyclin H/MAT1 complex (P51946 whole entry partner): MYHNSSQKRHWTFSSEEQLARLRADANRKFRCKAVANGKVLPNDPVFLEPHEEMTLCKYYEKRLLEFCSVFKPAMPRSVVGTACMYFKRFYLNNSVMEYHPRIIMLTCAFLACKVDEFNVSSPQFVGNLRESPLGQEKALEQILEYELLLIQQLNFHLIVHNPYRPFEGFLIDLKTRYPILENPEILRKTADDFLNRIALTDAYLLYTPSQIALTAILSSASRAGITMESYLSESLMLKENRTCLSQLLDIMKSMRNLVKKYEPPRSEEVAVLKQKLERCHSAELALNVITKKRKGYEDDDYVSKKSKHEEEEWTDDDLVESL
Sequence of CDK7/Cyclin H/MAT1 complex (P51948 whole entry partner): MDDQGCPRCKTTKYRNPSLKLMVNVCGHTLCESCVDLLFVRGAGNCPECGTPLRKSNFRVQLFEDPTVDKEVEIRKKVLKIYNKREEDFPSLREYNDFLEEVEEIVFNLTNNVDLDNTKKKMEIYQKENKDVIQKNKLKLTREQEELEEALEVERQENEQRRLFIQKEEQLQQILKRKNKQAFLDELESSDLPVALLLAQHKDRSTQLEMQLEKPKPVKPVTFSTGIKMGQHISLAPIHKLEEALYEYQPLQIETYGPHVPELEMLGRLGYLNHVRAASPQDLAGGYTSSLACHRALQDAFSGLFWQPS
Sequence of CDK9/Cyclin T1 complex (P50750 whole entry): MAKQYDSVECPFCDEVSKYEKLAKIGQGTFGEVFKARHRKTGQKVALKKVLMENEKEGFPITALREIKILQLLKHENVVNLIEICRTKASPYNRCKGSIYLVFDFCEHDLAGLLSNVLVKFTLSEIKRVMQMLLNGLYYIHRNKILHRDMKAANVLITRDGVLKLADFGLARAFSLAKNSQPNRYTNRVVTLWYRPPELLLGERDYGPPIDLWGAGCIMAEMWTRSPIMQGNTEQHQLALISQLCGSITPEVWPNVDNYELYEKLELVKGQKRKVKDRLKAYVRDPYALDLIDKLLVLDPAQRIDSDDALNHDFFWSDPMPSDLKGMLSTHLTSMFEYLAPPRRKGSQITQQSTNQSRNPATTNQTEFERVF
Sequence of CDK9/Cyclin T1 complex (O60563 whole entry partner): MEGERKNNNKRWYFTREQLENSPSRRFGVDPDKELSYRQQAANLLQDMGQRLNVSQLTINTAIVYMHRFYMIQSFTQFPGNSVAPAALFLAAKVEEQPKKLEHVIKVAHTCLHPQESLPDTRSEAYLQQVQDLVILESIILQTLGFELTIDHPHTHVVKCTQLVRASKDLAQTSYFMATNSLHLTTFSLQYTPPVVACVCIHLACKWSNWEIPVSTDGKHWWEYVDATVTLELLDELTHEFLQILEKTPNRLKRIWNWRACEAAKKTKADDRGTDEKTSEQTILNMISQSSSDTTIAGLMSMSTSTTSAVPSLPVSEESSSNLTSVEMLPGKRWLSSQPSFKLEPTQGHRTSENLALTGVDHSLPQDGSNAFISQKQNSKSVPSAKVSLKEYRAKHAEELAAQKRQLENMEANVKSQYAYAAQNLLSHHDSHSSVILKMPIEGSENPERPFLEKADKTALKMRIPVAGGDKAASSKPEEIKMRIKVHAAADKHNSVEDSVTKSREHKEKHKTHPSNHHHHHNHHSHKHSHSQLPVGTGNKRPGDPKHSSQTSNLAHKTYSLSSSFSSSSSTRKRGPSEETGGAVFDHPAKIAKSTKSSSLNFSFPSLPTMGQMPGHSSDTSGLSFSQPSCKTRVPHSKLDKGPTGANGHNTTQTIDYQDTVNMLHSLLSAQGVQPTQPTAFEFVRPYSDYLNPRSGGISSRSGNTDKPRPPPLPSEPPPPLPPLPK
T1 sequence (Q9NYV4 686-1082): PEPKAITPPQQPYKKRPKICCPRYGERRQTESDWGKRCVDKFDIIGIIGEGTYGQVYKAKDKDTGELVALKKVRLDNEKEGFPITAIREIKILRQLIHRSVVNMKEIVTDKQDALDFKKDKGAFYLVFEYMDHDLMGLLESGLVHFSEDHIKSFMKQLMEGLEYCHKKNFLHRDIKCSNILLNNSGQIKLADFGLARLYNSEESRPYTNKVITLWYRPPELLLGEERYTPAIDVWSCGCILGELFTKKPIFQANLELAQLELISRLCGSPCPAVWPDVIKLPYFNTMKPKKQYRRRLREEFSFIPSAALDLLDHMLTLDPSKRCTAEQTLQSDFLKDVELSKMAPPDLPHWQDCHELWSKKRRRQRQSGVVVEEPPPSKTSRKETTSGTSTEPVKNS
T1 sequence (O75909 whole entry partner, the tested form may be a part): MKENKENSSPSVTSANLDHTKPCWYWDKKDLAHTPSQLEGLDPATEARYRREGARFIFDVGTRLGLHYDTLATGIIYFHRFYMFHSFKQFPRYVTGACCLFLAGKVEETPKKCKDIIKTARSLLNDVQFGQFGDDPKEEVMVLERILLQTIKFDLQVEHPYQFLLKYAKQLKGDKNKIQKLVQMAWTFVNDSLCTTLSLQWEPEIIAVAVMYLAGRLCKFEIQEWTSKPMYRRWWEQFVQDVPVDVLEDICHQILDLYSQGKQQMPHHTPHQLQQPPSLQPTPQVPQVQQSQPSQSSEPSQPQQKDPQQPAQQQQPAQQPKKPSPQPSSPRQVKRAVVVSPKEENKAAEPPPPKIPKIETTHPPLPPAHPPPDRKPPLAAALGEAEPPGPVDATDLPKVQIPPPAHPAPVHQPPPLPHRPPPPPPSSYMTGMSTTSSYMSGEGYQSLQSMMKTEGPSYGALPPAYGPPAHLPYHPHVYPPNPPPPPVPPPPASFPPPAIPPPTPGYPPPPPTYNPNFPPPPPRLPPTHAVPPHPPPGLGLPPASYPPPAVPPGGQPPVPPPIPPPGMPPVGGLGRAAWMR

Structure (SMILES)	IC50 (CDK2/Cyclin E1 complex) [µM]	IC50 [1] [nM]	IC50 (CDK9/Cyclin T1 complex) [µM]	IC50 [2] [µM]	IC50 (A673 cells) [nM]
CNC(=O)c1ccc2c(-c3nc(NC4CCCNC4)ncc3C(F)(F)F)c[nH]c2c1 (stereo not shown) [Compound 186]	0.2 to 5	< 20	0.2 to 5	0.2 to 5	20 to 200
CCOP(=O)(OCC)c1ccc2c(-c3nc(NC4CCCNC4)ncc3C(F)(F)F)c[nH]c2c1 (stereo not shown) [Compound 187]	≥ 5	20 to 200	≥ 5	0.2 to 5	20 to 200
FC(F)(F)c1cnc(NC2CCCNC2)nc1-c1c[nH]c2cc(-c3cn[nH]c3)ccc12 (stereo not shown) [Compound 188]	0.2 to 5	< 20	0.2 to 5	0.2 to 5	20 to 200
COc1cnc(N[C@H]2CCCNC2)nc1-c1c[nH]c2ccccc12 [Compound 189]	≥ 5	200 to 5000	≥ 5	≥ 5	200 to 5000
CC(C)(O)CCc1cccc2c(-c3nc(NC4CCCNC4)ncc3C(F)(F)F)c[nH]c12 (stereo not shown) [Compound 191]	0.2 to 5	< 20	0.2 to 5	0.2 to 5	< 20
C#Cc1cnc(NC2CCCNC2)nc1-c1c[nH]c2ccccc12 (stereo not shown) [Compound 194]	0.2 to 5	< 20	0.2 to 5	0.2 to 5	< 20
C#Cc1cnc(N[C@H]2CCCNC2)nc1-c1cn(C)c2ccccc12 [Compound 195]	≥ 5	200 to 5000	≥ 5	≥ 5	20 to 200
O=S1(=O)CCN(c2cccc3c(-c4nc(NC5CCCNC5)ncc4Cl)c[nH]c23)CC1 (stereo not shown) [Compound 196]	0.2 to 5	< 20	0.2 to 5	0.2 to 5	20 to 200
N#Cc1cc2[nH]cc(-c3nc(NC4CCCNC4)ncc3C(F)(F)F)c2cc1F (stereo not shown) [Compound 197]	0.2 to 5	< 20	0.2 to 5	0.2 to 5	< 20
OC1CC=C(c2cccc3c(-c4nc(NC5CCCNC5)ncc4C(F)(F)F)c[nH]c23)CC1 (stereo not shown) [Compound 198]	0.2 to 5	< 20	0.2 to 5	0.2 to 5	< 20
CNS(=O)(=O)c1ccc2c(-c3nc(N[C@H]4CCCNC4)ncc3C(F)(F)F)c[nH]c2c1 [Compound 200]	0.2 to 5	< 20	0.2 to 5	0.2 to 5	20 to 200
CC1CNCC(Nc2ncc(Cl)c(-c3c[nH]c4ccccc34)n2)C1 (stereo not shown) [Compound 201]	0.2 to 5	< 20	0.2 to 5	0.02 to 0.2	< 20
FC(F)(F)c1cnc(NC2CCCNC2)nc1-c1c[nH]c2cc(-c3ncc[nH]3)ccc12 (stereo not shown) [Compound 202]	0.2 to 5	< 20	0.2 to 5	≥ 5	20 to 200
OC1CNCC(Nc2ncc(C(F)(F)F)c(-c3c[nH]c4ccccc34)n2)C1 (stereo not shown) [Compound 203]	0.2 to 5	< 20	0.2 to 5	0.2 to 5	< 20
O=C(c1ccc2c(-c3nc(NC4CCCNC4)ncc3C(F)(F)F)c[nH]c2c1)N1CCC(O)C1 (stereo not shown) [Compound 204]	≥ 5	< 20	≥ 5	0.2 to 5	200 to 5000
O=C(c1ccc2c(-c3nc(N[C@H]4CCCNC4)ncc3C(F)(F)F)c[nH]c2c1)N1CC[C@@H](O)C1 [Compound 205]	≥ 5	< 20	≥ 5	0.2 to 5	200 to 5000

Structure (SMILES)	IC50 (CDK2/Cyclin E1 complex) [µM]	IC50 [1] [nM]	IC50 (CDK9/Cyclin T1 complex) [µM]	IC50 [2] [µM]	IC50 (A673 cells) [nM]
FCCc1cnc(NC2CCCNC2)nc1-c1c[nH]c2ccccc12 (stereo not shown) [Compound 206]	≥ 5	20 to 200	0.2 to 5	0.2 to 5	200 to 5000
OC1CCC(c2cccc3c(-c4nc(NC5CCCNC5)ncc4C(F)(F)F)c[nH]c23)CC1 (stereo not shown) [Compound 207]	0.2 to 5	< 20	0.2 to 5	0.2 to 5	< 20
CC(=O)c1cnc(NC2CCCNC2)nc1-c1c[nH]c2ccccc12 (stereo not shown) [Compound 208]	≥ 5	20 to 200	≥ 5	0.2 to 5	20 to 200
CC1(C)CCNC[C@@H]1Nc1ncc(C(F)(F)F)c(-c2c[nH]c3ccccc23)n1 [Compound 209]	≥ 5	200 to 5000	≥ 5	≥ 5	20 to 200
CC1(C)CCNC[C@H]1Nc1ncc(C(F)(F)F)c(-c2c[nH]c3ccccc23)n1 [Compound 210]	≥ 5	200 to 5000	≥ 5	≥ 5	200 to 5000
CCC1CCC(Nc2ncc(C(F)(F)F)c(-c3c[nH]c4ccccc34)n2)CN1 (stereo not shown) [Compound 211]	0.2 to 5	20 to 200	0.2 to 5	0.2 to 5	20 to 200
FC(F)(F)c1cnc(NC2CCC3(CC3)NC2)nc1-c1c[nH]c2ccccc12 (stereo not shown) [Compound 212]	0.2 to 5	< 20	0.2 to 5	0.2 to 5	< 20
FC(F)(F)c1cnc(NC2CCCNC2)nc1-c1c[nH]c2cc(N3CCCC3)ccc12 (stereo not shown) [Compound 213]	≥ 5	20 to 200	≥ 5	0.2 to 5	20 to 200
CC(C)(O)Cn1cc(-c2ccc3c(-c4nc(N[C@H]5CCCNC5)ncc4C(F)(F)F)c[nH]c3c2)cn1 [Compound 214]	0.2 to 5	20 to 200	0.2 to 5	0.2 to 5	20 to 200
FC(F)(F)c1cnc(N[C@@H]2CNCc3ccccc32)nc1-c1c[nH]c2ccccc12 [Compound 215]	≥ 5	20 to 200	≥ 5	≥ 5	200 to 5000
FC(F)(F)c1cnc(NC2CNCc3ccccc32)nc1-c1c[nH]c2ccccc12 (stereo not shown) [Compound 216]	0.2 to 5	200 to 5000	≥ 5	≥ 5	200 to 5000
CCC1CCC(Nc2ncc(C(F)(F)F)c(-c3c[nH]c4ccccc34)n2)CN1 (stereo not shown) [Compound 217]	0.2 to 5	< 20	0.2 to 5	0.2 to 5	20 to 200
C=Cc1cnc(NC2CCCNC2)nc1-c1c[nH]c2ccccc12 (stereo not shown) [Compound 218]	0.2 to 5	< 20	0.2 to 5	0.2 to 5	20 to 200
CS(=O)(=O)Cc1ccc2c(-c3nc(NC4CCCNC4)ncc3C(F)(F)F)c[nH]c2c1 (stereo not shown) [Compound 219]	0.2 to 5	< 20	0.2 to 5	0.2 to 5	20 to 200
FC(F)(F)c1cnc(NC2CCCNC2)nc1-c1c[nH]c2cc(-c3cccnc3)ccc12 (stereo not shown) [Compound 223]	0.2 to 5	< 20	0.2 to 5	0.2 to 5	20 to 200
FC(F)(F)c1cnc(N[C@H]2CCCNC2)nc1-c1c[nH]c2cc(-c3ccncc3)ccc12 [Compound 224]	0.2 to 5	< 20	0.2 to 5	0.2 to 5	20 to 200
